pIC50: −log10 of the molar value.

Series [1] can be described thus: Further preclinical studies of compound 5. The series is classed as in vivo. The settings on record: data not shown.
The target of another series is CCR5 (Homo sapiens, UniProt P51681). The series can be described thus: cAMP assay, U87CD4CCR5 cells stimulated with CCL5. The series is classed as cell-based. The settings on record: 150 ng/mL CCL5.
The test system of series [2] is carrageenan-induced mouse paw inflammation. Description: Carrageenan-induced paw edema model. The series is classed as in vivo. Particulars: for Paw inflammation inhibition percentage: 10 mg/kg i.p. daily; for Paw inflammation suppression compared with 4: 10 mg/kg i.p. versus 4 at 300 µg/kg.
Series [3] addresses T1, CXCR4 (Homo sapiens, UniProt P61073). The series can be described thus: cAMP assay. The series is classed as cell-based.
The target of series [4] is T1, CXCR4. Description: Ca2+ flux induced by CXCR4/CXCL12 interaction. The series is classed as cell-based. The settings on record: Gq pathway; data not shown.
Series [5] concerns CXCR4/CXCL12-mediated Matrigel invasion of MDA-MB-231 cells. The series can be described thus: Matrigel invasion assay, CXCL12 as chemoattractant. The series is classed as cell-based. Particulars: 10 nM compound, 200 ng/mL CXCL12, 0.01 µM.
The nature of series [6]: Blood clearance and bioavailability of 26 in mice. Particulars: mouse, in vivo.
In another series the test system is Melanoma OMM2.3 cells. Description: Uveal melanoma micrometastasis mouse model. Particulars: for Number of hepatic micrometastases: control around 90. The series is classed as in vivo.
For series [7], the system named is bleomycin induced lung fibrosis. Description: Bleomycin induced lung fibrosis model. The series is classed as in vivo, mouse. The settings on record: 300 µg/kg i.p. daily, day 20 after bleomycin.
Series [8] deals with MDA-MB-231 cells in Matrigel plugs. Description: In vivo tumor angiogenesis assay. Particulars: 300 µg/kg daily s.c., 10 days, nude mice. More on the design: species or system mouse.

Chain of CCR5 (P51681 whole entry): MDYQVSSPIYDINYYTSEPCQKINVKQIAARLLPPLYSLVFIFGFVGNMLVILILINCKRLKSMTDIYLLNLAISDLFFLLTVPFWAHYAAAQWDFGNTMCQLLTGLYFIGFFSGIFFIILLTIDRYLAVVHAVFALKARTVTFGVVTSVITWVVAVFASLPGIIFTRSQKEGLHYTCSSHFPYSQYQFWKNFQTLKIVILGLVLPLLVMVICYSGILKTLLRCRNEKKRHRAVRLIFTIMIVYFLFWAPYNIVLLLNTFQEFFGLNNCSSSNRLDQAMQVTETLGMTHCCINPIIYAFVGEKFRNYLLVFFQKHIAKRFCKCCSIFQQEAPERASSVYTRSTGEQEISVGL
T1 sequence (P61073 whole entry): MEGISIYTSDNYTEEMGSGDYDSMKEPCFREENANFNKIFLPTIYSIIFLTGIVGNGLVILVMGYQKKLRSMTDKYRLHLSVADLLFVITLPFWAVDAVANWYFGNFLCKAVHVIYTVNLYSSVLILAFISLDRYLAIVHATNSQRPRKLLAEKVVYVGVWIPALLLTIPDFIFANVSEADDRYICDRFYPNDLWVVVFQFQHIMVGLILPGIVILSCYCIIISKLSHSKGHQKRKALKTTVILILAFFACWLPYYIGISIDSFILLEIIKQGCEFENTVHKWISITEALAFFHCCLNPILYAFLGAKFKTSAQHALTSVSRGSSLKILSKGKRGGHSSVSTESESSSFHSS

Turning to `c1ccc(NCc2ccc(CNc3ccccn3)cc2)nc1` [Compound 5, WZ811], in [1], the Bioavailability entry is “poor bioavailability” and the In vivo efficacy result is reported as “failed to exhibit any in vivo efficacy”. Further, on CCR5, the “Effect on blocking CCL5 stimulating CCR5 (cAMP)” value (from here on “Effect”) is “no significant effect”.

Turning to `Fc1cccc(NCc2ccc(CNc3ncccn3)cc2)n1` [Compound 10e, N-(4-((6-fluoropyridin-2-ylamino)methyl)benzyl)pyrimidin-2-amine], the “Paw inflammation inhibition percentage” value in [2] (C57BL/6J mice) was “more than 50%”. The “Paw inflammation suppression compared with 4” value in [2] is “comparable to 4”.

Take `Clc1cccc(NCc2ccc(CNc3ncccn3)cc2)n1` [Compound 10g, N-(4-((6-chloropyridin-2-ylamino)methyl)benzyl)pyrimidin-2-amine]: the “Paw inflammation inhibition percentage” value in [2] (C57BL/6J mice) was “more than 50%”. For the same compound, in series [2], the “Paw inflammation suppression compared with 4” value is “comparable to 4”.

On to `Fc1cnc(NCc2ccc(CNc3nccc(C(F)(F)F)n3)cc2)nc1` [Compound 21a, N-(4-((5-fluoropyrimidin-2-ylamino)methyl)benzyl)-4-(trifluoromethyl)pyrimidin-2-amine], for which the “Interrupting CXCL12/CXCR4-mediated cAMP modulation” value on CXCR4 [3] is “effective”. Besides, the “Block of Ca2+ flux induced by CXCR4/CXCL12 interaction” value at CXCR4 [4] is “do not block”.

Turning to `CSc1nccc(NCc2ccc(CNc3ncc(F)cn3)cc2)n1` [Compound 21b, 5-fluoro-N-(4-((2-(methylthio)pyrimidin-4-ylamino)methyl)benzyl)pyrimidin-2-amine], in series [2], the “Paw inflammation suppression compared with 4” value was “comparable to 4”. Also, the “Invasion Inhibition 10nM” value in series [5] was found to be 62%.

For `CCOCCN1CCN(C(=O)c2cnc(NCc3ccc(CNc4ncc(F)cn4)cc3)nc2C(F)(F)F)CC1` [Compound 21c, (4-(2-ethoxyethyl)piperazin-1-yl)(2-(4-((5-fluoropyrimidin-2-ylamino)methyl)benzylamino)-4-(trifluoromethyl)pyrimidin-5-yl)methanone], the “Effect” value at CCR5 is listed as “no significant effect”.

`Fc1cnc(Cl)nc1NCc1ccc(CNc2ccnc(NCCN3CCOCC3)n2)cc1` [Compound 26]: in [6], the Oral bioavailability entry is “lack of oral bioavailability”. At CCR5, the “Effect” value is listed as “no significant effect”. For the same compound, in series [2], the “Paw inflammation suppression compared with 4” value is reported as “comparable to 4”. Further, on CXCR4 [3], the pIC50 was about 9.00 and the “Interrupting CXCL12/CXCR4-mediated cAMP modulation” value is “effective”. In the series with Melanoma OMM2.3 cells (10 mg/kg i.p. daily), the “Number of hepatic micrometastases” value was “around 40”. In series [5], the “Invasion Inhibition 10nM” value is given as over 60%. Besides, the “Block of Ca2+ flux induced by CXCR4/CXCL12 interaction” value on CXCR4 [4] is recorded as “do not block”.

Turning to TN14003 [Compound 4], the Lung fibrosis inhibition in [7] was determined as 85%. The Paw inflammation suppression result in [2] (300 µg/kg i.p. daily, C57BL/6J mice) was “about 50%”. In addition, in the series with Melanoma OMM2.3 cells (300 µg/kg i.p. daily, nude mice), the “Decrease of hepatic micrometastases” value is on record as “about 50%”. The “Number of hepatic micrometastases” value in the series on Melanoma OMM2.3 cells (300 µg/kg i.p. daily) was “around 40”. Further, the “Angiogenesis inhibition (hemoglobin content of Matrigel plugs)” value in series [8] is “about 70%”.

For the origin of these results see PMC3003753 (Journal of medicinal chemistry, 2010).
